Measured values: patent publication US9296687B2, “Modulators of HSP70/DnaK function and methods of use thereof” (The Trustees of the University of Pennsylvania, priority 2008, dated 2016)

Assays:
MiaPaCa2 cells = experiment: Pulse-chase of newly synthesized proteins; assay type: cell-based, human; details: 20 μM, 3 h chase
Experimental: FIG. 13. Cycloheximide Reduces PES-Induced Cytoplasmic Vacuolization. (A) Representative phase-contrast images of indicated tumor cell lines pretreated with DMSO or 1 μg/ml of cycloheximide (CHX) for 1 h, followed by the addition of 20 μM PES for 23 h. (B) The molecular chaperone HSP70 has been implicated in promoting proper folding of nascent polypeptides. […] Briefly, MiaPaCa2 cells were incubated in methionine/cysteine starvation medium for 30 min before adding [^35S]methionine/cysteine and DMSO or [^35S]methionine/cysteine and 20 μM PES, as indicated, to pulse for 1 h. Following the pulse, cells were immediately chased by complete medium for 0, 0.5, or 3 h, either in the presence of DMSO or 20 μM PES, as indicated. Cells were harvested at indicated time points, lysed in 1% NP40-containing buffer, and fractionated into detergent-soluble and detergent-insoluble preparations.
The cells were seeded at ˜50% confluency in 10 ml of DMEM/10% FBS/1× Pen-Strep using 100 mm dish. Next day, the cells were washed extensively in PBS and starved in “methionine/cysteine-free DMEM” (Invitrogen SKU#21013-024) with 5% dialyzed FBS and 1× Pen/Strep for 30 min. Either [^35S] Methionine/Cysteine (500 μCi) and DMSO or [^35S] Methionine/Cysteine (500 μCi) and 20 μM PES were added to the cells for 1 h. The cells were washed extensively to remove [^35S] […]

MTT cell viability assay = assay type: cell-based, human; details: human; 20 μM, all tumor cell lines examined; read-out: loss of cell viability
Experimental: (§1) Cell viability assays were performed using an MTT (methyl thiazolyl tetrazolium) colorimetric assay (Roche Applied Science, Cat. No. 11 465 007 001), with the following modifications. Briefly, cells (1×10^4) were plated into 24 well-assay plates in 0.5 ml media and allowed to attach overnight. […] After the incubation period, 50 μl of the water-soluble MTT labeling reagent [3-[4,5-dimethylthiazol-2-yl]-2,5-diphenyl tetrazolium bromid] were added to the cells, and the cells were incubated for 4 h in a humidified chamber at 37° C. with 5% CO2. The metabolized insoluble formazan crystals were then solubilized using 0.5 ml of the Solubilization solution (10% SDS in 0.01M HCl) per well, and the resulting colored solutions were spectrophotometrically quantified at an absorbance of 570 nm.

tumor cell lines = experiment: MTT cell viability assay; assay type: cell-based, human
Experimental: as §1

HSP70 = HSP70 (Homo sapiens, UniProt P0DMV8); experiment: Capture of HA-tagged HSP70 constructs from transfected H1299 cells with biotinylated compound; assay type: binding; set-up: expressed in transfected cells; host or cells: H1299; details: biotinylated compound, 6 hours
Experimental: FIG. 1. PES Binds to HSP70. (A) Whole cell extracts (WCE) prepared from A875 and BCL-xL over-expressing U2OS human osteosarcoma cells (BX-U2OS) cells, treated with Biotin or Biotin-PES (B-PES), were captured using NeutrAvidin agarose resins. HSP70-family proteins were identified as the major product in the excised band of ˜70 kDa shown in both Coomassie gels. (B and C) WCE were prepared from the cell lines indicated following 24 h treatment with 20 μM Biotin or B-PES and examined for the expression of proteins indicated (left panel of B and C) by western blot analysis; note that different exposure times were used to visualize these proteins. […] (D) In vitro evidence for an interaction between B-PES and HSP70. Full-length human HSP70 and human HSP90 proteins were in vitro translated in the presence of ^35S-methionine, mixed with B-PES coupled to NeutrAvidin resins, and eluted using 100 mM DTT. The resulting DTT eluates were separated by polyacrylamide gel electrophoresis (SDS-PAGE) and visualized by autoradiography. (E) B-PES interacts with the C-terminal region of HSP70. H1299 cells were transfected with the indicated hemagglutinin (HA)-tagged constructs and exposed to B-PES. B-PES containing complexes were captured by NeutrAvidin Resins, eluted following 100 mM DTT treatment, and immunoblotted with anti-HA antibody following SDS-PAGE. (F) Non-transformed human IMR90 fibroblasts or H1299 lung carcinoma cells were treated with the indicated concentrations of PES for 24 h and cell viability was determined by MTT assays. (G) WCE were prepared from the cell lines indicated following 5 hr treatment with 20 μM PES or B-PES and examined for the expression of proteins indicated (left panel) by western blot analysis; note that different exposure times were used to visualize these proteins. B-PES-containing complexes were captured by NeutrAvidin resins, eluted following 50 mM DTT treatment, and immunoblotted using the indicated antibodies.
The free amide group of PES-Cl was biotinylated and added to HA-tagged HSP70-transfected H1299 cells. The treatment of the cells occurred for 6 hours. The complexes were pulled down with NeutrAvidin beads, eluted with 100 mM DTT treatments, separated with SDS-PAGE and detected with anti-HA antibody (Millipore) by Western blot.
Docking studies were performed using the C-terminal HSP70 crystal structure (FIG. 32) to elucidate the PES binding site in silico (FIG. 33). Blind docking methods were used in the program AutoDock to locate potential PES binding sites. These methods use a course grid docking approach, encompassing the entire protein, to identify favorable binding sites using a known binding ligand, and are examined by hand to support the AutoDock data. […]

20S proteasome = experiment: Cell-based 20S proteasome activity assay; set-up: species or system human; details: H1299 or A875 cells; PES 20 μM, 17-AAG 1 μM, CQ 5 μM
caspase-3, caspase-8 = experiment: Western blot for caspase cleavage; assay type: cell-based, human

Sequence of HSP70 (P0DMV8 2-641): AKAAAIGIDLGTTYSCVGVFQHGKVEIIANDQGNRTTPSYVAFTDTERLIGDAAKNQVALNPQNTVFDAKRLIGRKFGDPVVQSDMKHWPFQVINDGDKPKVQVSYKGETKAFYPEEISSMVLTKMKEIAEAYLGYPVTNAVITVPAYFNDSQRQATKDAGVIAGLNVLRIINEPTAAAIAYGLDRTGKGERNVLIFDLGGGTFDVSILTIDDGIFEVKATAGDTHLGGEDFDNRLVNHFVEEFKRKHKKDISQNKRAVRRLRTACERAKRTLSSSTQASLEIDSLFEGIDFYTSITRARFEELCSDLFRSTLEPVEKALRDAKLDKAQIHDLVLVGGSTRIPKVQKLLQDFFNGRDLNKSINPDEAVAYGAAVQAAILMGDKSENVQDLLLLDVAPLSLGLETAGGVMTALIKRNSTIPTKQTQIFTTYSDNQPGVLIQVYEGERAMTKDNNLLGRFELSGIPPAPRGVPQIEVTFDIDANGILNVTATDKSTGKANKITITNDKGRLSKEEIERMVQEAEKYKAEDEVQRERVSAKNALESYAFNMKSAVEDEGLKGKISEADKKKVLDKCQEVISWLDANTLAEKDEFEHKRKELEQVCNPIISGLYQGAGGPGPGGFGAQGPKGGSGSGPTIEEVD

## NS(=O)(=O)C#Cc1ccccc1 [PES, 2-Phenylethynesulfonamide]
MiaPaCa2 cells
  newly-synthesized proteins in the detergent-insoluble fraction: increase in the newly-synthesized proteins in the detergent-insoluble fraction
MTT cell viability assay
  cytotoxicity at 20 μM: > 50%
Tumor cell lines; Homo sapiens, various tumor cell lines, read-out: half maximal concentration to exert cytotoxic effect (IC50)
  IC50: 4 to 10 µM
Tumor cell lines; all tumor cell lines examined
  cell viability, dose response: dose-dependent loss of cell viability
HSP70
  interaction with HA-tagged HSP70: interact with HSP70
20S proteasome
  activity of the 20S proteasome: impairs the activity of the 20S proteasome
caspase-3, caspase-8; PES 20 μM alone
  cleavage of caspase-3, caspase-8 or PARP: not accompanied by cleavage of caspase-3, caspase-8, or PARP
caspase-3, caspase-8; co-treatment with cisplatin
  caspase-cleavage products after cisplatin: effectively inhibited the appearance of these caspase-cleavage products
